Measured values: patent publication US9120749B2, “Quinoline derivatives and MELK inhibitors containing the same” (ONCOTHERAPY SCIENCE, INC., priority 2010, dated 2015)
Structures can show the parent of a compound that is named as a salt.

The molecules below were run against MELK (Homo sapiens, UniProt Q14680) (assay: Kinase assay: MELK activity, phosphorylation of FITC-labeled histone H3 peptide measured by IMAP fluorescence polarization). Conditions: MELK kinase assay, IMAP fluorescence polarization, 50 micro-M ATP; dihydrochloride; read-out: IC50 (μM) (kinase assay).
Assay type: biochemical
Method: MELK activity was determined in the presence or absence of compounds using fluorescein isothiocyanate-labeled (FITC-labeled) histone H3 peptide as a substrate. […] Test compounds were dissolved in DMSO at 12.5 mM and then serially diluted as the DMSO concentration in the assays to be 1%. […] The reaction was stopped by the addition of three fold assay volume of progressive binding solution. Following 0.5 hour incubation at room temperature, fluorescence polarization was measured by Wallac EnVision 2103 multilabel reader (PerkinElmer).

Chain of MELK (Q14680 whole entry, looked up): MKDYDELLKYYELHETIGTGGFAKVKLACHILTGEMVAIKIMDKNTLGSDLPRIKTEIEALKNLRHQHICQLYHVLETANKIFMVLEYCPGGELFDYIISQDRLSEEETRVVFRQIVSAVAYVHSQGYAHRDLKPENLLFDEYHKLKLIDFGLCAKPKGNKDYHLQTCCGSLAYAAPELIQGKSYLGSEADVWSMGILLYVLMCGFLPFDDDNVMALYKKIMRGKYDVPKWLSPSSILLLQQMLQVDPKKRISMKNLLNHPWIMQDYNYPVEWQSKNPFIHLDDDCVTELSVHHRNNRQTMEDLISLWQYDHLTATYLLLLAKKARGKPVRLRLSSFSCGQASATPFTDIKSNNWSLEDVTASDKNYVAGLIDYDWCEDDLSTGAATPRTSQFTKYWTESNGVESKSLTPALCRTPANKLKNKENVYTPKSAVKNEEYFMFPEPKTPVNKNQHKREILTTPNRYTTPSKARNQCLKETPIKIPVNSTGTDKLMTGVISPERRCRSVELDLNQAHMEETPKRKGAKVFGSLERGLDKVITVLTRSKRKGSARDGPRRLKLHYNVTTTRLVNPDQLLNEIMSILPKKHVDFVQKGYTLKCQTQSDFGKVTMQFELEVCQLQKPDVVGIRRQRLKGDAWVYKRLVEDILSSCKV

Row | Compound | IC50
1 | CC(=O)c1cnc2ccc(-c3cc(F)c(O)c(Cl)c3)cc2c1N[C@H]1CC[C@H](CN(C)C)CC1 [Example 943, 1-(6-(3-chloro-5-fluoro-4-hydroxyphenyl)-4-((trans-4-((dimethylamino)methyl)cyclohexyl)amino)quinolin-3-yl)ethanone dihydrochloride] | 0.004 µM

Same assay, conditions: MELK kinase assay, IMAP fluorescence polarization, 50 micro-M ATP; hydrochloride; read-out: IC50 (μM) (kinase assay)

Row | Compound | IC50
2 | CC(=O)c1cnc2ccc(-c3cc(Cl)c(O)c(Cl)c3)cc2c1N[C@H]1CC[C@H](CN(C)C)CC1 [Example 944, 1-{6-(3,5-Dichloro-4-hydroxyphenyl)-4-[trans-4-((dimethylamino)methyl)cyclohexylamino]quinolin-3-yl}ethanone hydrochloride] | 0.00094 µM

Same assay, conditions: MELK kinase assay, IMAP fluorescence polarization, 50 micro-M ATP; read-out: IC50 (μM) (kinase assay)

Row | Compound | IC50
3 | COc1ccc2c(c1)CN(c1ccc3ncc(C(C)=O)c(N[C@H]4CC[C@H](CN(C)C)CC4)c3c1)C2=O [Example 933] | 1.2 µM
4 | CC(=O)c1cnc2ccc(-c3cc(F)c(O)c(Cl)c3)cc2c1N[C@H]1CC[C@H](CN(C)C)CC1 [Example 378, 1-(6-(3-chloro-5-fluoro-4-hydroxyphenyl)-4-((trans)-4-((dimethylamino)methyl)cyclohexylamino)quinolin-3-yl) ethanone] | 0.0061 µM
5 | COc1cc(-c2ccc3ncc(C(C)=O)c(N[C@H]4CC[C@H](N)CC4)c3c2)cc(Cl)c1O [Example 940, 1-(4-((1R,4R)-4-aminocyclohexylamino)-6-(3-chloro-4-hydroxy-5-methoxyphenyl)quinolin-3-yl)ethanone, hydrochloride] | 0.0012 µM
6 | CC(C)C(=O)c1cnc2ccc(-c3cc(F)c(O)c(Cl)c3)cc2c1N[C@H]1CC[C@H](N)CC1 [Example 937, 1-(4-((1R,4R)-4-aminocyclohexylamino)-6-(3-chloro-5-fluoro-4-hydroxyphenyl)quinolin-3-yl)-2-methylpropan-1-one, dihydrochloride] | 0.0054 µM
7 | CC(=O)c1cnc2ccc(-c3cc(Cl)c(O)c(Cl)c3)cc2c1Nc1ccc(CN(C)C)cc1 [Example 942, 1-(6-(3,5-dichloro-4-hydroxyphenyl)-4-(4-((dimethylamino)methyl)phenylamino)quinolin-3-yl)ethanone] | 0.0022 µM
8 | CC(=O)c1cnc2cc(C)c(-c3cc(F)c(O)c(Cl)c3)cc2c1N[C@H]1CC[C@H](CN(C)C)CC1 [Example 859, 1-(6-(3-chloro-5-fluoro-4-hydroxy-phenyl)-4-((1R,4R)-4-((dimethylamino)methyl)cyclohexyl)amino)-7-methyl-quinolin-3-yl)ethanone hydrochloride] | 0.84 µM
9 | CN(C)[C@H]1CC[C@H](Nc2c(C(=O)C3CC3)cnc3ccc(-c4cc(Cl)c(O)c(Cl)c4)cc23)CC1 [Example 941, cyclopropyl(6-(3,5-dichloro-4-hydroxyphenyl)-4-((1R,4R)-4-(dimethylamino)cyclohexylamino)quinolin-3-yl)methanone, dihydrobromide] | 0.0016 µM
10 | CN1CCN(c2ccc(Nc3c(C(=O)C4CC4)cnc4cc(C(F)(F)F)c(-c5cc(Cl)c(O)c(Cl)c5)cc34)cn2)CC1 [Example 839, cyclopropyl(6-(3,5-dichloro-4-hydroxy-phenyl)-4-(6-(4-methylpiperazin-1-yl)pyridin-3-ylamino)-7-(trifluoro-methyl)quinolin-3-yl)methanone] | 4.2 µM
11 | CC(=O)c1cnc2ccc(-c3ccc(-c4ccc(O)cc4)cc3)cc2c1Nc1cccc(CCN2CCCC2)c1 [Example 888, 1-(6-(4′-hydroxy-[1,1′-biphenyl]-4-yl)-4-((3-(2-(pyrrolidin-1-yl)ethyl)phenyl)amino)quinolin-3-yl) ethanone hydrochloride] | 3.4 µM
12 | CC(=O)c1cnc2ccc(-c3cc(Cl)c(O)c(Cl)c3)cc2c1N[C@H]1CC[C@H](N)CC1 [Example 939, 1-(4-((1R,4R)-4-aminocyclohexylamino)-6-(3,5-dichloro-4-hydroxyphenyl)quinolin-3-yl)ethanone, hydrochloride] | 0.0034 µM
13 | CC(=O)c1c(C)nc2ccc(-c3cc(F)c(O)c(Cl)c3)cc2c1N[C@H]1CC[C@H](CN(C)C)CC1 [Example 834, 1-(6-(3-chloro-5-fluoro-4-hydroxy-phenyl)-4-(1R,4R)-4-((dimethylamino)methyl)cyclohexylamino)-2-methyl-quinolin-3-yl)ethanone hydrochloride] | 0.82 µM
14 | CC(=O)c1c(C)nc2ccc(-c3cc(F)c(O)c(Cl)c3)cc2c1Nc1ccc(N2CCN(C)CC2)nc1 [Example 837, 1-(6-(3-chloro-5-fluoro-4-hydroxy-phenyl)-2-methyl-4-(6-(4-methyl-piperazin-1-yl)pyridin-3-ylamino)quinolin-3-yl)ethanone hydrochloride] | 0.54 µM
15 | CN(C)C[C@H]1CC[C@H](Nc2c(C(=O)C3CC3)cnc3ccc(-c4cc(Cl)c(O)c(Cl)c4)cc23)CC1 [Example 324, cyclopropyl(6-(3,5-dichloro-4-hydroxyphenyl)-4-(trans-4-((dimethylamino)methyl)cyclohexylamino)quinolin-3-yl)methanone] | 0.00085 µM
16 | CN(C)[C@H]1CC[C@H](Nc2c(C(=O)C3CC3)cnc3ccc(-c4cc(F)c(O)c(Cl)c4)cc23)CC1 [Example 264, (6-(3-chloro-5-fluoro-4-hydroxyphenyl)-4-((1R,4R)-4-(dimethylamino)cyclohexylamino)quinolin-3-yl)(cyclopropyl)methanone] | 0.0029 µM
17 | CC(=O)c1cnc2ccc(-c3ccncc3)cc2c1N[C@H]1CC[C@H](CN(C)C)CC1 [Example 908, 1-(4-((1R,4R)-4-((dimethylamino)methyl)cyclohexyl)amino)-6-(pyridin-4-yl)quinolin-3-yl)ethanone hydrochloride] | 0.23 µM
18 | N[C@H]1CC[C@H](Nc2c(C(=O)C3CC3)cnc3ccc(-c4cc(F)c(O)c(Cl)c4)cc23)CC1 [Example 936, (4-((1R,4R)-4-aminocyclohexylamino)-6-(3-chloro-5-fluoro-4-hydroxyphenyl)quinolin-3-yl)(cyclopropyl)methanone, hydrochloride] | 0.0019 µM
19 | CN(C)C[C@H]1CC[C@H](Nc2c(C(=O)C3CC3)cnc3cc(C(F)(F)F)c(-c4cc(Cl)c(O)c(Cl)c4)cc23)CC1 [Example 842] | 0.93 µM
20 | CC(=O)c1cnc2ccc(-c3ccc4nc[nH]c4c3)cc2c1Nc1cccc(CCN2CCCC2)c1 [Example 896, 1-(6-(1H-benzo[d]imidazol-6-yl)-4-((3-(2-(pyrrolidin-1-yl)ethyl)phenyl)amino)quinolin-3-yl)ethanone hydrochloride] | 0.22 µM
21 | CC(=O)c1cnc2cc(C)c(-c3cc(Cl)c(O)c(Cl)c3)cc2c1N[C@H]1CC[C@H](CN(C)C)CC1 [Example 857] | 3.4 µM
22 | CN(C)C[C@H]1CC[C@H](Nc2c(C(=O)C3CC3)cnc3cc(C(F)(F)F)c(-c4cc(F)c(O)c(Cl)c4)cc23)CC1 [Example 841] | 0.77 µM
23 | CC(=O)c1cnc2cc(C)c(-c3cc(F)c(O)c(Cl)c3)cc2c1Nc1ccc(N2CCN(C)CC2)nc1 [Example 856, 1-(6-(3-chloro-5-fluoro-4-hydroxy-phenyl)-7-methyl-4-((6-(4-methyl-piperazin-1-yl)pyridin-3-yl)amino)quinolin-3-yl)ethanone hydrochloride] | 0.46 µM

Same assay, conditions: hydrochloride; read-out: IC50 (μM) (kinase assay)

Row | Compound | IC50
24 | CN(CCO)C[C@H]1CC[C@H](Nc2c(C(=O)C3CC3)cnc3ccc(-c4cc(Cl)c(O)c(Cl)c4)cc23)CC1 [Example 635, cyclopropyl(6-(3,5-dichloro-4-hydroxyphenyl)-4-(1R,4R)-4-(((2-hydroxyethyl)(methyl)amino)methyl)cyclohexylamino)quinolin-3-yl)methanone hydrochloride] | 0.00074 µM
